Source: publication PMC4992173, “Divergent synthesis and identification of the cellular targets of deoxyelephantopins” (Nature Communications, 2016)

Biological target: T1, PPARγ (Homo sapiens, UniProt P37231)
T1 sequence (P37231 1-505): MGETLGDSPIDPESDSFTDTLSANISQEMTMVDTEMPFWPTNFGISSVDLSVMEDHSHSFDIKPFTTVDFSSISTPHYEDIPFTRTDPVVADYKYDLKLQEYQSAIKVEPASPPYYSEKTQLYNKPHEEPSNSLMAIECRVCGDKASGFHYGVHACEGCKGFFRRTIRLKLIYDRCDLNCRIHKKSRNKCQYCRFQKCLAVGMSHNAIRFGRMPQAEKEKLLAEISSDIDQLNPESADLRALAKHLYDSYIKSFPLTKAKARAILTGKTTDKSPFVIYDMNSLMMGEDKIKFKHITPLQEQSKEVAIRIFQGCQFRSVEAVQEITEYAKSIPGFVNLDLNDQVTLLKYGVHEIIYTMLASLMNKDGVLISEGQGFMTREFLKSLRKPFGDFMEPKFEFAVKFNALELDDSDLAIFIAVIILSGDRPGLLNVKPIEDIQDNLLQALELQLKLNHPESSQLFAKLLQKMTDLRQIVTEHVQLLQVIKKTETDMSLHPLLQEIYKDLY
Assay: IAA-competitive labelling of cysteines on PPARγ (LC-MS/MS)
Assay type: binding
Conditions: 100 µM, 1 h
From the text: Finally, we sought to understand the molecular basis for PPARγ binding by the synthetic analogues of deoxyelephantopin through identification of the precise covalently modified amino acid site. There is literature precedent for oxidized fatty acids containing an α,β-unsaturated ketone to form a covalent bond with a cysteine in the ligand-binding site of PPARγ[53]. More recently, synthetic ligands binding reversibly to a distinct site were identified. […] Bearing in mind that the structurally simplified, and thus less prone to MS/MS fragmentation, probe 23c binds PPARγ as efficiently as 24c (Supplementary Fig. 13), we treated the recombinant nuclear receptor with the former compound, digested the protein and analysed the resulting peptides by LC–MS/MS. […] While zinc fingers respond to oxidative stress through reaction at cysteines[55][56] and have been targeted by small molecules forming disulfide bridges, to the best of our knowledge, deoxyelephantopin is the first example of a small molecule that engages a zinc finger through a Michael addition. The success of Michael acceptors as a cysteine trap in current clinical development of covalent inhibitors points to the privileged reactivity profile of this moiety. Having identified the exact binding site, we then performed covalent docking of 19a using the protein–ligand docking program GOLD. […] Following the docking result, we mutated these two residues, transiently expressed the wild-type and the two PPARγ mutant forms in 293T cells and performed gel-based competitive experiments to determine relative binding affinities for 19a. […] Finally, it is interesting to note that SILAC experiment led to the identification of ZNF346, another zinc finger motif-containing protein. […]
H2O (Buffer A) and 0.1% FA in MeCN (Buffer B). Peptides were eluted into the mass spectrometer at a flow rate of 300 nL/min. over a 240 min. linear gradient (3-35% Buffer B) at 50 °C. Data was acquired in data-dependent mode (top- N = ’ […]
and isotope exclusion was enabled.
MaxQuant analysis. The MS data was analyzed with MaxQuant (V1.5.2.8) and searched against the human proteome (Uniprot, 89,649 entries) and a common list of contaminants (included in MaxQuant). The first peptide search tolerance was set to 20 ppm, 10 ppm was used for the main peptide search and fragment mass tolerance was set to 0.02 Da. The false discovery rate for peptides, proteins and sites identification was set to 1%. The minimum peptide length was set to 6 amino acids and peptide re-quantification, label-free quantification (MaxLFQ) and “ ” were enabled. The minimal number of peptides per protein was set to two. Oxidized methionines and N-terminal acetylation were searched as variable modifications and carbamidomethylation of cysteines was searched as a fixed modification. For SILAC experiments 13C6 L-lysine and 13C6 15N4 L-arginine were set as heavy isotope labels and 12C6 L-lysine and 12C6 14N4 L-arginine as light isotope labels. […]
IAA competition of 23c, 24c and DEP h ARγ. γ
(500 ng in 9 µL PBS) was treated with either 100 µM DEP, 23c, 24c or DMSO (1 µL of 10x stock in DMSO) for one hour. Samples were denatured with 6 M urea in 50 mM NH4HCO3, […]
in the dark. Samples were diluted to 2 M urea with 50 mM NH4HCO3, and digested with trypsin . μ . μ μ 2 for 12 hours at 37 °C. Samples were acidified to a final concentration of 5% acetic acid, desalted over a self-packed C18 spin column and dried. Samples were resuspended in 0.1% FA in water and analyzed by LC-MS/MS (see above). MS data was analyzed in MaxQuant (see above). […]

[1] = peptide NKCQYCR (contains Cys190)

Compound	competition of iodoacetamide labelling of the Cys190-containing tryptic peptide	Ratio compound/DMSO (IAA-labelled peptide) (peptide ASGFHYGVHACEGCK)	Ratio compound/DMSO (IAA-labelled peptide) (peptide CLAVGMSHNAIR)	Ratio compound/DMSO (IAA-labelled peptide) (peptide IFQGCQFR)	Ratio compound/DMSO (IAA-labelled peptide) (peptide LKLIYDRCDLNCR)	Ratio compound/DMSO (IAA-labelled peptide) [1]	Ratio compound/DMSO (IAA-labelled peptide) (peptide TQLYNKPHEEPSNSLMAIECR)	Ratio compound/DMSO (IAA-labelled peptide) (peptide VCGDKASGFHYGVHACEGCK)
C#CCC[C@H](O)[C@H]1C(=C)C(=O)O[C@@H]1c1ccccc1 [23c]	> 75%	0.79	1.14	0.63	0.83	0.25	1.52	0.68
C#CCC[C@H](OC(=O)C(=C)C)[C@H]1C(=C)C(=O)O[C@@H]1c1ccccc1 [24c]	> 75%	0.72	1.40	0.60	0.87	0.08	1.72	0.65
C=C(C)C(=O)O[C@H]1CC2=C[C@@H](C/C(C)=C/[C@H]3OC(=O)C(=C)[C@H]13)OC2=O [deoxyelephantopin]	> 75%	1.05	0.94	0.73	0.96	0.00	0.94	0.81
